Results taken from ChEMBL document CHEMBL1134333, “[3H]N-2-(4-(N-benzamido)phenyl)propyl-2-propanesulfonamide: a novel AMPA receptor potentiator and radioligand” (J Med Chem, 2001).

Columns and labels:
[1] = target: T1, Glutamate receptor ionotropic, AMPA (Rattus norvegicus, UniProt P19490+P19491+P19492+P19493); assay: Effective concentration of AMPA required to increase specific binding of [3H]6 to rat cerebral cortical membranes.
[2] = target: T1, Glutamate receptor ionotropic, AMPA; assay: Effective concentration of glutamate required to increase specific binding of [3H]6 to rat cerebral cortical membranes.
[3] = target: T1, Glutamate receptor ionotropic, AMPA; assay: Inhibition of binding to AMPA receptor from rat cerebral cortex; format: tissue-based

SMILES	EC50 [1]	EC50 [2]	IC50 [3]
CC(CNS(=O)(=O)C(C)C)c1ccc(NC(=O)c2ccccc2)cc1 (centres undefined)	5.5 µM	31 µM	0.17 µM
NS(=O)(=O)c1cc2c(cc1Cl)NC(C1CC3C=CC1C3)NS2(=O)=O (centres undefined) [CYCLOTHIAZIDE]			6.1 µM
